According to patent publication US4540700A, “Treatment of diabetic complications with certain spiro-imidazolidine-diones” (Alcon Laboratories, Inc., priority 1984, dated 1985):
pIC50: −log10 of the molar value.

Legend:
[1] = tested on: nerve conduction velocities of the sciatic nerve; experiment: Nerve conduction study in diabetic rats; format: in vivo, male albino rats; details: for nerve conduction velocity as a percent of normal, first inflection / nerve conduction velocity as a percent of normal, first peak / nerve conduction velocity as a percent of normal, second inflection / nerve conduction velocity as a percent of normal, second peak: 15 weeks
Protocol: (§1) The purpose is to evaluate the efficacy of the racemic 2-fluoro compound (L), an aldose reductase inhibitor, for inhibiting cataractogenesis and nerve conduction deficit in diabetic rats.
(§2) Diabetes was induced in male albino rats by the intravenous injection of 50 mg/kg streptozotocin. The diabetic state was verified by measuring the blood glucose level in each animal before and after injection. […] A fourth group consisted of non-diabetic and otherwise normal rats which remained untreated. Treatments were given once daily by oral […], and continued through the day prior to sacrifice of the animal.
(§3) Each animal was weighed on a weekly basis. Both lenses of each animal were examined by ophthalmoscope periodically and any cataractous changes were graded and noted. At the end of 15 weeks, each animal was anesthetized using pentobarbital and the nerve conduction velocities of the sciatic nerve were measured. After an animal was sacrificed, the sciatic nerve and other tissues and organs were taken, weighed, and frozen for future biochemical analyses.

Rat Aldose Reductase = Rat Aldose Reductase (Rattus norvegicus, UniProt P07943); experiment: Rat Aldose Reductase Inhibition; format: biochemical
From the text: Biophysical Chemistry, 8 (1978) 81-85; P. F. Kador, L. O. Merola and J. H
Kinoshita Documenta Ophthamologica, 18 (1979) 117.

[2] = tested on: galactitol levels in the lenses; experiment: galactitol levels in lenses of galactose-fed rats at Day 32; format: in vivo, rat; set-up: average galactitol levels in lenses: unit not given here; details: for average galactitol levels in lenses: Day 32
From the text: (§4) The compounds were formulated in ground Purina Rodent Laboratory Chow, Number 5001, containing 30% galactose.
(§5) The galactose control group (twelve rats, twenty-four eyes) were fed ground Purina Rodent Laboratory Chow, No. 5001 containing 30% by weight galactose. The six test compound groups (twelve rats, twenty-four eyes per group) were fed the same 30% galactose chow except that the chow was formulated to deliver […] of the indicated test compound (see Table IV).

Human Aldose Reductase = Human Aldose Reductase (Homo sapiens, UniProt P15121); experiment: Human Aldose Reductase Inhibition; format: biochemical; details: for activity against human aldose reductase as compared to rat aldose reductase: human vs rat; for more active against human aldose reductase than the Sarges resolved compound: relative to Sarges resolved
[3] = tested on: cataractogenesis in diabetic rats; experiment: cataractous changes in streptozotocin diabetic rats; format: in vivo, male albino rats; details: 15 weeks
Protocol: as §1, §2, §3
Cataractous changes were graded on a scale of 0 to 4; 0 denoting a normal looking lens with no changes and 4 denoting opacification involving the whole lens.

cataracts in rats = experiment: prevention or retardation of cataracts in rats fed 30% galactose diet (compound in chow); format: in vivo, rat; details: for inhibition of cataract development: 4 and 8 Mg/Kg/day; for condition of rat eyes: 4 and 8 Mg/Kg/day in 30% galactose chow, 32 days
From the text: as §4
Eighty-four rats were divided into the following seven groups (six treated groups having different compound intake levels and an untreated galactose control) having different compound intake levels as shown in Table IV.
as §5
It is known that young male rats fed a 30% galactose diet (As previously described) will develop lenticular changes within several days which predicatively progress in time irreversibly to cataracts. Aldose reductase inhibitor compounds which are in vivo active will delay or prevent galactose induced cataractogenesis. In this in vivo experiment, the test aldose reductase inhibitor compounds were formulated in the 30% galactose feed to evaluate their in vivo anticataract activity.

O=C1NC(=O)C2(N1)c1ccccc1-c1ccc(F)cc12 (racemic) [Compound L, dl-Spiro(2-fluorofluoren-9,4'-imidazolidine)-2',5'-dione]
nerve conduction velocity as a percent of normal, first inflection ([1]; 8 mg/kg once daily oral): 93.3% | nerve conduction velocity as a percent of normal, first peak ([1]; 8 mg/kg once daily oral): 88.2% | nerve conduction velocity as a percent of normal, second inflection ([1]; 8 mg/kg once daily oral): 87.4% | nerve conduction velocity as a percent of normal, second peak ([1]; 8 mg/kg once daily oral): 85.0% | statistical significance of improvement in nerve conduction ([1]; 8 mg/kg, by comparison to the untreated diabetic rats): significant | pIC50 (Rat Aldose Reductase): 6.82 | average galactitol levels in lenses ([2]; 4 Mg/Kg/day): 6.274 | average galactitol levels in lenses ([2]; 8 Mg/Kg/day): 5.074 | inhibition at 100 µM (Human Aldose Reductase; 10^-4, human, read-out: In vitro Aldose Reductase Inhibition): 100% | inhibition at 10 µM (Human Aldose Reductase; 10^-5, human, read-out: In vitro Aldose Reductase Inhibition): 88% | inhibition at 1 µM (Human Aldose Reductase; 10^-6, human, read-out: In vitro Aldose Reductase Inhibition): 81% | inhibition at 0.1 µM (Human Aldose Reductase; 10^-7, human, read-out: In vitro Aldose Reductase Inhibition): 53% | inhibition at 0.01 µM (Human Aldose Reductase; 10^-8, human, read-out: In vitro Aldose Reductase Inhibition): 18% | pIC50 (Human Aldose Reductase; human): 7.04 | activity against human aldose reductase as compared to rat aldose reductase (Human Aldose Reductase): as active or more active | more active against human aldose reductase than the Sarges resolved compound (Human Aldose Reductase): 7 X | prevention of lens opacification in diabetic rats ([3]; 8 mg/kg once daily oral): effective in preventing opacification of the lens | inhibition of cataract development (cataracts in rats): inhibit cataract development | condition of rat eyes (cataracts in rats): asymptomatic

O=C1NC(=O)C2(CCOc3ccc(F)cc32)N1 (racemic) [Sarges Racemic, dl-spiro-(6-fluorochroman-4,4'-imidazolidine)-2',5'-dione, reference compound]
nerve conduction velocity as a percent of normal, first inflection ([1]; 16 mg/kg once daily oral): 88.6% | nerve conduction velocity as a percent of normal, first peak ([1]; 16 mg/kg once daily oral): 83.9% | nerve conduction velocity as a percent of normal, second inflection ([1]; 16 mg/kg once daily oral): 82.4% | nerve conduction velocity as a percent of normal, second peak ([1]; 16 mg/kg once daily oral): 79.1% | average galactitol levels in lenses ([2]; 4 Mg/Kg/day): 9.238 | average galactitol levels in lenses ([2]; 8 Mg/Kg/day): 9.107 | prevention of lens opacification in diabetic rats ([3]; 16 mg/kg once daily oral, 30 lenses): all appeared normal | Times to Cataract, Mean (cataracts in rats; 4 Mg/Kg/day): 15.68 days | average time to snowflake-like opacities (cataracts in rats; 4 Mg/Kg/day): 15.7 days | condition of rat eyes (cataracts in rats): developed snowflake-like opacities | time to cataract, days less than at 8 Mg/Kg/day (cataracts in rats; 4 vs 8 Mg/Kg/day, average): 4 days | Times to Cataract, Mean (cataracts in rats; 8 Mg/Kg/day): 19.68 days | average time to snowflake-like opacities (cataracts in rats; 8 Mg/Kg/day): 19.7 days

O=C1NC(=O)C2(N1)c1cc(F)ccc1-c1ccc(F)cc12 [M, Spiro-[2,7-difluorofluoren-9,4'-imidazolidine]-2',5'-dione]
pIC50 (Rat Aldose Reductase): 7.36 | average galactitol levels in lenses ([2]; 4 Mg/Kg/day): 2.560 | potency relative to the 2-fluoro compound ([2]; 4 and 8 Mg/Kg/day): more potent | average galactitol levels in lenses ([2]; 8 Mg/Kg/day): 1.399 | In vitro Aldose Reductase Inhibition (Human Aldose Reductase; 10^-5, human): 81 | In vitro Aldose Reductase Inhibition (Human Aldose Reductase; 10^-6, human): 71 | In vitro Aldose Reductase Inhibition (Human Aldose Reductase; 10^-7, human): 64 | In vitro Aldose Reductase Inhibition (Human Aldose Reductase; 10^-8, human): 35 | pIC50 (Human Aldose Reductase; human): 7.28 | activity against human aldose reductase as compared to rat aldose reductase (Human Aldose Reductase): as active or more active | more active against human aldose reductase than the Sarges resolved compound (Human Aldose Reductase): 12 X | inhibition of cataract development (cataracts in rats): inhibit cataract development | condition of rat eyes (cataracts in rats): asymptomatic
